Calls of active or inactive are those of the source.
Tests used:
[1] = cytotoxicity in HPDE-C7 cells, cell-based, fluorescence, HTS (AID 430); assay type: functional; details: Homo sapiens
[2] = cytotoxicity in KRAS-transformed pancreatic duct cells, primary screen, cell-based, fluorescence, HTS (AID 431); assay type: functional; details: Homo sapiens;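 further: cell line used: HPDE-C7K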
[3] = inhibitors of PGC1a acetylation in cells, dose response, cell-based, cherry-picked samples (AID 720514); assay type: functional;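 further: potency may reflect raised or lowered acetylation signal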
[4] = P. falciparum Dd2 growth inhibitors, dose response, SYBR Green, cherry-picked samples (AID 1159567); assay type: functional, cell-based
[5] = HepG2 cell cytotoxicity, dose response, cytotoxicity control, cherry-picked samples (AID 1159577); assay type: functional, cell-based
[6] = P. falciparum 3D7-ScDHODH growth inhibitors, dose response, SYBR Green, dry powder samples (AID 1159570); assay type: functional, cell-based;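 further: parasite growth measured after 72 hours of compound exposure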
[7] = HepG2 cell cytotoxicity, dose response, cytotoxicity control, plate reader, dry powder samples (AID 1159569); assay type: functional, cell-based;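 further: inhibitor potency with signal falling toward the positive control level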
[8] = P. falciparum Dd2 growth inhibitors, dose response, SYBR Green, dry powder samples (AID 1159566); assay type: functional, cell-based;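 further: potency for growth inhibition with lower SYBR green DNA signal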
[9] = P. falciparum ATP4 D1247Y mutant growth inhibitors, dose response, NITD609-resistant line, SYBR Green, dry powder (AID 1159571); assay type: functional, cell-based;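 further: parasites synchronized at ring stage by sorbitol before testing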
[10] = LGR2 antagonists, dose response, cell-based, HEK293, CRE-luciferase reporter, cherry pick, set 2 (AID 743343); assay type: functional;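 further: transfected cells were stimulated with diluted bursicon conditioned medium after compound addition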
[11] = MC4R antagonists, dose response, counter-screen for LGR2 antagonist project, cell-based, plate reader, cherry pick (AID 743444); assay type: functional;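 further: transfected HEK 293 cells stimulated with alpha-MSH peptide; potency of inhibitors of the alpha-MSH evoked signal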
[12] = HEK293 cell cytotoxicity, dose response, cytotoxicity control, plate reader, cherry-picked samples (AID 743446); assay type: functional, cell-based
[13] = target: T1, 1-phosphatidylinositol 4,5-bisphosphate phosphodiesterase gamma-1 (Homo sapiens, UniProt P19174); assay: Counterscreen for inhibitors of phospholipase C isozymes (PLC-B3): Fluorescence-based biochemical high throughput dose response assay to identify inhibitors of phospholipase C isozymes (PLC-gamma1).
T1 sequence (P19174 whole entry): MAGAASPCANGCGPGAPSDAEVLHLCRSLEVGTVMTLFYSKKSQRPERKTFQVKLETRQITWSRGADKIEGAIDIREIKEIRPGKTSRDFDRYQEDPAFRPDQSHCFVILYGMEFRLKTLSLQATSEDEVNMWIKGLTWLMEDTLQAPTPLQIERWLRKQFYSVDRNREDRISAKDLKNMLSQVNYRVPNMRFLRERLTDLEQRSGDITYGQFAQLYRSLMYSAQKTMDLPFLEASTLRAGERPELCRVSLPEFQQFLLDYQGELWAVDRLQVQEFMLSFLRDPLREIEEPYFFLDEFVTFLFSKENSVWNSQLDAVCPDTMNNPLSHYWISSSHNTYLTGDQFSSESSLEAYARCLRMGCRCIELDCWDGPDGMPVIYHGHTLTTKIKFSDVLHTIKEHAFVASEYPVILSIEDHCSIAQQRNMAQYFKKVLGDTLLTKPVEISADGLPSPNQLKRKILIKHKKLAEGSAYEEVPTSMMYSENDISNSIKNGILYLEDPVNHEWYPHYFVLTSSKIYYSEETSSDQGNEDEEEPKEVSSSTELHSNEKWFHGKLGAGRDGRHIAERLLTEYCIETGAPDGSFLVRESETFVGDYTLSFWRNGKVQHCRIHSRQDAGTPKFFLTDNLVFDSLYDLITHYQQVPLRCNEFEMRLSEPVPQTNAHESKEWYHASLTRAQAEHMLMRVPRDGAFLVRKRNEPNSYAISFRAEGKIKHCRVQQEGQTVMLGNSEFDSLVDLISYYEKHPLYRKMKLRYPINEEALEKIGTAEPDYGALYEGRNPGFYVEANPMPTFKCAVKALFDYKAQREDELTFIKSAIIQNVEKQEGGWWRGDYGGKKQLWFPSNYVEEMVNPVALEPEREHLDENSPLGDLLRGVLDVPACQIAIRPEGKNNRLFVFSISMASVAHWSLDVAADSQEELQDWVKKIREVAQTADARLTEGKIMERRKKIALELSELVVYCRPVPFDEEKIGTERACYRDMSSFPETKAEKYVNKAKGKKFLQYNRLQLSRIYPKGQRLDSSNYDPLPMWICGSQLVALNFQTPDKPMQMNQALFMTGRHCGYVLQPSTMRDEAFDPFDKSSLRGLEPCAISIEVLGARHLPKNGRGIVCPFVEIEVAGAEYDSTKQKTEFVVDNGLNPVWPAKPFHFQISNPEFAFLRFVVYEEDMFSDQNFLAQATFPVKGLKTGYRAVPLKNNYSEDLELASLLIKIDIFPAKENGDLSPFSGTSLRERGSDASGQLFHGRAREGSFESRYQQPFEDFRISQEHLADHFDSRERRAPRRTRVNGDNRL

[14] = target: T2, 1-phosphatidylinositol 4,5-bisphosphate phosphodiesterase beta-3 (Homo sapiens, UniProt Q01970); assay: Fluorescence-based biochemical high throughput dose response assay to identify inhibitors of phospholipase C isozymes (PLC-B3).
T2 sequence (Q01970 whole entry): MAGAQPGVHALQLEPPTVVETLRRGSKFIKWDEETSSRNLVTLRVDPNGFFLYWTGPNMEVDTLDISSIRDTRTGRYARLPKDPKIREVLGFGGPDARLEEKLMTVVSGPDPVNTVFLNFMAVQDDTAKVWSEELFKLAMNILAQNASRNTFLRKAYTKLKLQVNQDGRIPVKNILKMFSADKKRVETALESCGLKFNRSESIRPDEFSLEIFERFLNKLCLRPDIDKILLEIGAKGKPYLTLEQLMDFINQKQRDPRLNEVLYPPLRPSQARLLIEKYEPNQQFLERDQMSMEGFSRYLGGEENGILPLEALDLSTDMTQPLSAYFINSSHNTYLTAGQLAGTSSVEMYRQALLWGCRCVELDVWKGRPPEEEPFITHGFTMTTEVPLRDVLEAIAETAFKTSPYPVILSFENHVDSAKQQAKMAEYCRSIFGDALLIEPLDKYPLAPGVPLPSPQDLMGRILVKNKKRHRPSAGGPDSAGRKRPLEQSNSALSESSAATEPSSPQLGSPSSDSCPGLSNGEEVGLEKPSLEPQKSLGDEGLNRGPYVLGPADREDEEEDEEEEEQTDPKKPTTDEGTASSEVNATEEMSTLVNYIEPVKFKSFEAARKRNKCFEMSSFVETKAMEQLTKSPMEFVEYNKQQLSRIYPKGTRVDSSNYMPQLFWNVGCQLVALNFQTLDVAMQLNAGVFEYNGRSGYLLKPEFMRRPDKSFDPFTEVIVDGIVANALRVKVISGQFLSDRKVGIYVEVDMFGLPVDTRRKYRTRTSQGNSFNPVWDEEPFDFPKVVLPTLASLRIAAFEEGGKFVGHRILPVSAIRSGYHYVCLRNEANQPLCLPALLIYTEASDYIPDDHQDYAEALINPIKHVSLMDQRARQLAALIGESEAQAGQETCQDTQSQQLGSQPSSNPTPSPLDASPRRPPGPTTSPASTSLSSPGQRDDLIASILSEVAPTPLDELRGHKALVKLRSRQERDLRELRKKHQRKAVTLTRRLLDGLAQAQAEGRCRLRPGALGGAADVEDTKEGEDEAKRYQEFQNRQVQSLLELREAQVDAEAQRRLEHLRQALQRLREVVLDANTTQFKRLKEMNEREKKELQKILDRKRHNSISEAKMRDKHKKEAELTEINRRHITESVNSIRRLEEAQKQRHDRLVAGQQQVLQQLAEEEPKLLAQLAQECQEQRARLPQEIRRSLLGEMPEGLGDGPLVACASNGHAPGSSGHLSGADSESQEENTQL

[15] = target: Voltage-gated inwardly rectifying potassium channel KCNH2 (Homo sapiens, UniProt Q12809); assay: hERG protection from proarrhythmic block, potency, dose response, cell-based, thallium flux (AID 2121); assay type: ADME
Sequence of Voltage-gated inwardly rectifying potassium channel KCNH2 (Q12809 whole entry): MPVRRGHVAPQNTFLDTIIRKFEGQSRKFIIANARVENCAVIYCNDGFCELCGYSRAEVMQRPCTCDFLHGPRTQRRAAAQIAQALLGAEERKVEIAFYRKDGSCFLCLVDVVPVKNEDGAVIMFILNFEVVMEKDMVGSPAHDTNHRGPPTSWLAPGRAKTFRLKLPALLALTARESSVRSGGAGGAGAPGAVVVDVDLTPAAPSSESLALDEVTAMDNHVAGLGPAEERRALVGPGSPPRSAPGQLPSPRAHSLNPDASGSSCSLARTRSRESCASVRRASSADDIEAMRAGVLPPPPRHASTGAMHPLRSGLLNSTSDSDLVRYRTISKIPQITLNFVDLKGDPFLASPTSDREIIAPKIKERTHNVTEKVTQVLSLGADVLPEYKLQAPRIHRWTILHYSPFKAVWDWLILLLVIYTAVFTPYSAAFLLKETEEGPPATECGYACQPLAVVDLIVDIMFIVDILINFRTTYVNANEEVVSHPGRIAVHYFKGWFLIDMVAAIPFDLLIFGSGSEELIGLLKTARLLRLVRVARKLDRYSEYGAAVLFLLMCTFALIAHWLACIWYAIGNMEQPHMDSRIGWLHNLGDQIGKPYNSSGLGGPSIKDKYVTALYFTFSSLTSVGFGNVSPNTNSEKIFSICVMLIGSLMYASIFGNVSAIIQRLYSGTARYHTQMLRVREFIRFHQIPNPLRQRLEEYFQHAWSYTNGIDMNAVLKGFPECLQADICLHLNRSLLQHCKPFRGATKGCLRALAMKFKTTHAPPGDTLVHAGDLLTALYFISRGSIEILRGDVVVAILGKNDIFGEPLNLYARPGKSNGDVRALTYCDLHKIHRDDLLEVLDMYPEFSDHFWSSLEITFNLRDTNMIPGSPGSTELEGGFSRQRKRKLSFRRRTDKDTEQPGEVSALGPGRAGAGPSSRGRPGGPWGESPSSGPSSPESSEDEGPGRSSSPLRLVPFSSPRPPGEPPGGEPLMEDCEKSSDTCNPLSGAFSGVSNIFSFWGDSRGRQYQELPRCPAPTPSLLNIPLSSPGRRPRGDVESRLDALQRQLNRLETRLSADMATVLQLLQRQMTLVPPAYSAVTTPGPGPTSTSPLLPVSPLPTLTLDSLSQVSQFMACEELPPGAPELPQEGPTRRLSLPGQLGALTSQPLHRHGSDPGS

Large T antigen = Large T antigen (Simian virus 40, UniProt P03070); assay type: functional, Betapolyomavirus macacae;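 further: Confirmatory-stage PubChem screen for compounds that inhibit SV40 T antigen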
Sequence of Large T antigen (P03070 whole entry): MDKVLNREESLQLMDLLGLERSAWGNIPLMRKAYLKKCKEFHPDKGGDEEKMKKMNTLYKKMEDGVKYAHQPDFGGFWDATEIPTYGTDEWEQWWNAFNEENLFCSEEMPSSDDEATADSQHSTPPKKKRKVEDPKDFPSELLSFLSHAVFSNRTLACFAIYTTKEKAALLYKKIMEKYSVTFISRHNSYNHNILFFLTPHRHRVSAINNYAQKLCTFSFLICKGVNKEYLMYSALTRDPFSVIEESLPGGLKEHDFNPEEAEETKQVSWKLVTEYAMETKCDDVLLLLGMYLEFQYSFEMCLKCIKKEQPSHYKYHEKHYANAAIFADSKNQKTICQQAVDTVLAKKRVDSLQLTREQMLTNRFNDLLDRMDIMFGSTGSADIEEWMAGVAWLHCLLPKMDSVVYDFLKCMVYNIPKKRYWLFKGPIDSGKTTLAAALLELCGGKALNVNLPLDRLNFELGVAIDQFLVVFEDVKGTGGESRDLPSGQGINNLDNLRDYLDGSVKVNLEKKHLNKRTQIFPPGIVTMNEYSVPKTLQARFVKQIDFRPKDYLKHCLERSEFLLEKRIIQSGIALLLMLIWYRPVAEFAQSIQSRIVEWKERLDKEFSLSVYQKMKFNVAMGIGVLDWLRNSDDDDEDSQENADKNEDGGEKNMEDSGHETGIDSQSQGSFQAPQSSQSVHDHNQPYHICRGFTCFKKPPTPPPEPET

Protein Tat = target: T3, Protein Tat (Human immunodeficiency virus type 1 group M subtype B (isolate HXB2)(HIV-1), UniProt P04608); assay type: functional;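 further: tat binding to TAR RNA read out by fluorescence polarization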
T3 sequence (P04608 whole entry): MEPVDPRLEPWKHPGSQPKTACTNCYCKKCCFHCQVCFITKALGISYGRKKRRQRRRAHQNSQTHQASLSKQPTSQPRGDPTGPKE

[16] = THP-1 cell cytotoxicity, dose response, cytotoxicity control for Vif-APOBEC3G degradation inhibitor project, THP-1 cells (AID 1117359); assay type: functional; details: Human immunodeficiency virus 1, THP-1
Genome polyprotein = Genome polyprotein (dengue virus type 2, UniProt P29990); assay: Dengue-2 NS5 methyltransferase inhibitors, primary screen, biochemical, confirmation dose response (AID 588689); assay type: functional
Sequence of Genome polyprotein (P29990 2492-3391 limits assumed): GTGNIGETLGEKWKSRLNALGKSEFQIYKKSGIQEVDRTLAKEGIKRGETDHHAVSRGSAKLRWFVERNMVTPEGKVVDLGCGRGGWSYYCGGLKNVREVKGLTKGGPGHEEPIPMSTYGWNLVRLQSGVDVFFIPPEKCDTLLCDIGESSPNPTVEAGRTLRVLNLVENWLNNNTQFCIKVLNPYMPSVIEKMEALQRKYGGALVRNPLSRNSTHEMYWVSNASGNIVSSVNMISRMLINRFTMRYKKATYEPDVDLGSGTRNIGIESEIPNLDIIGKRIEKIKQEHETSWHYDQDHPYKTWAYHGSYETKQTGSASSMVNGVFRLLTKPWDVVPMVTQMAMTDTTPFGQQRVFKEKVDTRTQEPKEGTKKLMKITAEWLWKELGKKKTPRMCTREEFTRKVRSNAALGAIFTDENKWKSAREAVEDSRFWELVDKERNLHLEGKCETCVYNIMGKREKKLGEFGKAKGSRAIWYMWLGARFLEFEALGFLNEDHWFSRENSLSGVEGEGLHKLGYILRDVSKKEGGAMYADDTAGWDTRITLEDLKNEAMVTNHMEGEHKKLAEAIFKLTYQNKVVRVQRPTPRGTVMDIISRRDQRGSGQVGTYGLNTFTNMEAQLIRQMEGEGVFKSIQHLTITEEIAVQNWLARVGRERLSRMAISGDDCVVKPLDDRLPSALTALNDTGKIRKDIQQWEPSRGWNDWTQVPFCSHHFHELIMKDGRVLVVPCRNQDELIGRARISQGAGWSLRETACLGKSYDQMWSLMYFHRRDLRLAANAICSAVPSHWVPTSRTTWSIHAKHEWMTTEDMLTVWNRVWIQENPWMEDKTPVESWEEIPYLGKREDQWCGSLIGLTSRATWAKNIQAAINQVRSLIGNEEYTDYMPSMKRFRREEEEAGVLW

[17] = target: T4, Calpain-2 catalytic subunit (Sus scrofa, UniProt P43367); assay: pig calpain II inhibitor potency, dose response, biochemical, fluorogenic peptide substrate (AID 1420); assay type: functional
T4 sequence (P43367 whole entry): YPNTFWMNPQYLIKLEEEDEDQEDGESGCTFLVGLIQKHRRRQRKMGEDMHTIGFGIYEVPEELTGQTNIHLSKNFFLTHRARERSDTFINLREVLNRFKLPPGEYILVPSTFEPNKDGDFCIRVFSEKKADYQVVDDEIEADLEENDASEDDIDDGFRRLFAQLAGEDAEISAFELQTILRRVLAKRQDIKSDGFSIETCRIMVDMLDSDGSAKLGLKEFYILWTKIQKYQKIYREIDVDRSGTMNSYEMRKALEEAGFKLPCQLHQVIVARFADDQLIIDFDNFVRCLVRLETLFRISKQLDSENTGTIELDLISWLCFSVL

[18] = target: T5, Corticotropin-releasing factor receptor 2/Corticotropin-releasing factor-binding protein (Homo sapiens, UniProt P24387+Q13324); assay: Dose Response confirmation of uHTS hits for small molecule antagonists of the CRF-binding protein and CRF-R2 receptor complex.; assay type: functional; details: read-out: IC50_Mean
T5 sequence (Q13324 whole entry): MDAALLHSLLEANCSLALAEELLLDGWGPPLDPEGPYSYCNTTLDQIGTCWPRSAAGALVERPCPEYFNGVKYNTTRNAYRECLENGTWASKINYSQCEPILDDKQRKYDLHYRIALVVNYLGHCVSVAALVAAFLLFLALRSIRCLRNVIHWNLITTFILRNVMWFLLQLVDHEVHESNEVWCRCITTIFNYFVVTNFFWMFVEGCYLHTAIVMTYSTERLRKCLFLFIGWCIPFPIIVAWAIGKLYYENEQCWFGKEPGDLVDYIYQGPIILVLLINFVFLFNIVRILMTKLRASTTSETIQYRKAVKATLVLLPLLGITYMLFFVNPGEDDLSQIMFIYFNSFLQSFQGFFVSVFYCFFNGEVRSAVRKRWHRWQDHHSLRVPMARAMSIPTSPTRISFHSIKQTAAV
T5 sequence (P24387 whole entry): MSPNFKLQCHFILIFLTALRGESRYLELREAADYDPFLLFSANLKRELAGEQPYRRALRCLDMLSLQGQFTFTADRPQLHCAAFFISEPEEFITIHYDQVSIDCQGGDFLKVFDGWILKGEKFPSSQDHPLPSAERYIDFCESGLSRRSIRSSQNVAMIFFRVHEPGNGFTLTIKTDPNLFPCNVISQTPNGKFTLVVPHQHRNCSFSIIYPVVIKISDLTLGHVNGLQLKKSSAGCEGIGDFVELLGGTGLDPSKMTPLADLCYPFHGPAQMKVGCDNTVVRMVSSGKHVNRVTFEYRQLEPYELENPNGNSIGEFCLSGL

[19] = target: T5, Corticotropin-releasing factor receptor 2/Corticotropin-releasing factor-binding protein; assay: activators of CRF receptor 2 with binding protein – uHTS hits, confirmation (AID 602473); assay type: functional; details: read-out: EC50_Mean

OC(COCc1ccc(Cl)cc1)CN1CCN(CC(O)COCc2ccc(Cl)cc2)CC1 (stereo not drawn)
EC50 [1]: > 20 µM (not active) | EC50 [2]: > 20 µM (not active)

COc1cc(CN2C[C@@H]3N[C@H](C2)[C@@H]3c2ccc(/C=C/c3ccccc3)cc2)cc(OC)c1
AC50 [3]: 13 µM (active) | AC50 [4]: 2.38 µM (active) | AC50 [5]: 6.51 µM (active)

CO[C@@H]1CN(C)C(=O)c2ccc(NC(=O)c3nc4ccccc4s3)cc2OC[C@@H](C)N(Cc2ccncc2)C[C@H]1C
AC50 [6]: 1.39 µM (active) | AC50 [7]: 26.7 µM (active) | AC50 [4]: 2.62 µM (active) | AC50 [8]: 1.33 µM (active) | AC50 [5]: > 39 µM (inactive) | AC50 [9]: 1.34 µM (active)

Cc1cc(C(=O)COC(=O)c2cccn2C)c(C)n1Cc1ccco1
AC50 [10]: 5.16 µM (active) | AC50 [11]: 9.65 µM (active) | AC50 [12]: > 52 µM (inactive)

COC(=O)C[C@@H]1CC[C@@H]2[C@H](COc3ccc(NC(=O)c4cccc(F)c4)cc3C(=O)N2C)O1
IC50 [13]: > 122 µM (inactive) | IC50 [14]: > 122 µM (inactive)

COc1ccc(NC(=O)c2cc(-c3ccc(OC)c(OC)c3)on2)cc1OC
IC50 [13]: > 123 µM (inactive) | IC50 [14]: > 123 µM (inactive)

CC(=O)c1c(N)nc(-c2ccccc2)nc1S
EC50 [15]: 11 µM (active)

CCOC(=O)N1CCN(c2ccc(O)cc2)CC1
IC50 (Large T antigen): 10.2 µM (active) | IC50 (Protein Tat): 14 µM (inconclusive) | CC50 [16]: > 40 µM (active)

COc1ccc2c3c(n(C)c2c1)[C@H](CO)N(C(=O)Nc1ccc(F)cc1)CC31CN(C(=O)c2ccc3c(c2)OCO3)C1
AC50 [6]: 1.89 µM (active) | AC50 [7]: > 100 µM (inactive) | AC50 [4]: 2.68 µM (active) | AC50 [8]: 0.683 µM (active) | AC50 [9]: 1.2 µM (active)

C=CCc1cccc(CNc2nc3ccccc3n2CC)c1O
EC50 [1]: > 20 µM (not active) | EC50 [2]: > 20 µM (not active)

COc1cccc(C(C#N)N2CCCCC2)c1O (stereo not drawn)
IC50 (Protein Tat): > 100 µM (active)

CCOc1cc(Br)cc(C(c2c(C(=O)O)[nH]c3ccccc23)c2c(C(=O)O)[nH]c3ccccc23)c1O
IC50 (Genome polyprotein): 18.7 µM (active) | IC50 [13]: 18.6 µM (inactive) | IC50 [14]: > 122 µM (inactive)

Brc1ccc(CSc2nnc(Cc3c[nH]c4ccccc34)o2)cc1
EC50 [1]: 14.2 µM (active) | EC50 [2]: 13.4 µM (active) | IC50 [17]: 5.75 µM (not active) | IC50 [18]: > 47.1 µM (inactive) | EC50 [19]: > 53 µM (inactive)

Source: ChEMBL document CHEMBL1201862, “PubChem BioAssay data set” (2004)
